Key:
[1] = biological target: human androgen receptor (Homo sapiens (Human), UniProt P10275); experiment: Antagonist activity for AR (pMMTV-luc reporter transcription activity in transfected COS-7 cells, DHT 1 nmol/L); type: cell-based; details: 50% transcription activity inhibition concentration; COS-7 cells with pMMTV-luc and pEX-hAR, DHT 1 nmol/L, 24 hours
Procedure, shortened: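 COS-7 cells co-transfected with pMMTV-luc reporter and CMV-driven human AR expression vector, cultured overnight in phenol red-free RPMI1640 with 10% charcoal-treated FBS. Antagonism measured against 1 nmol/L DHT by luciferase transcription activity.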

[2] = tested on: Human prostate cancer cells LNCaP; experiment: Androgen-dependent inhibitory activity on proliferation of prostate cancer cells; type: cell-based; details: 50% proliferation inhibition concentration, DHT 10 nmol/L, 72 hours, read-out: GI50 value
Protocol: Human prostate cancer cells LNCaP (Non-Patent Literature 5) having […] androgen receptor gene were seeded in a clear bottom 96 well microplate (BD) at 4.0×10^3/well with phenol red free RPMI1640 containing 5% DCC-FBS (hereinbelow, the medium is referred to as an evaluation medium), and then cultured overnight. The culture was added with the evaluation medium containing DHT (final concentration of DHT: 10 nmol/L) or the evaluation medium containing the compound of Examples or the compound of Comparative Examples (final concentration of the compound of Examples or the compound of Comparative Examples: 10, 30, 100, 300, 1000, 3000, 10000, or 30000 nmol/L), followed by culture for 72 hours. Then, the number of viable cells was counted. The number of viable cells was measured by using Cell Counting Kit-8 (DOJINDO LABORATORIES).

[3] = tested on: AR positive human prostate cancer cells VCaP; experiment: Agonist activity for AR (cell proliferation rate of VCaP cells); type: cell-based; details: 72 hours, 2 to 10000 nmol/L, more than 10% at any concentration = agonist activity for AR
Procedure, shortened: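 VCaP cells seeded at 1.5×10^4/well in phenol-red-free RPMI1640 with 5% DCC-FBS, then exposed 72 h to compound at 2–10000 nmol/L (9 concentrations). Viable cells counted by CellTiter-Glo; proliferation rate (%) relative to medium-only control, agonist activity called when >10% at any concentration.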

[4] = biological target: androgen receptor (Homo sapiens (Human), UniProt P10275, T878A); experiment: Activity of reducing expression level of androgen receptor (Western blotting of LNCaP cell lysate); type: cell-based; details: 48 hours
androgen receptor, sequence (P10275 whole entry T878A): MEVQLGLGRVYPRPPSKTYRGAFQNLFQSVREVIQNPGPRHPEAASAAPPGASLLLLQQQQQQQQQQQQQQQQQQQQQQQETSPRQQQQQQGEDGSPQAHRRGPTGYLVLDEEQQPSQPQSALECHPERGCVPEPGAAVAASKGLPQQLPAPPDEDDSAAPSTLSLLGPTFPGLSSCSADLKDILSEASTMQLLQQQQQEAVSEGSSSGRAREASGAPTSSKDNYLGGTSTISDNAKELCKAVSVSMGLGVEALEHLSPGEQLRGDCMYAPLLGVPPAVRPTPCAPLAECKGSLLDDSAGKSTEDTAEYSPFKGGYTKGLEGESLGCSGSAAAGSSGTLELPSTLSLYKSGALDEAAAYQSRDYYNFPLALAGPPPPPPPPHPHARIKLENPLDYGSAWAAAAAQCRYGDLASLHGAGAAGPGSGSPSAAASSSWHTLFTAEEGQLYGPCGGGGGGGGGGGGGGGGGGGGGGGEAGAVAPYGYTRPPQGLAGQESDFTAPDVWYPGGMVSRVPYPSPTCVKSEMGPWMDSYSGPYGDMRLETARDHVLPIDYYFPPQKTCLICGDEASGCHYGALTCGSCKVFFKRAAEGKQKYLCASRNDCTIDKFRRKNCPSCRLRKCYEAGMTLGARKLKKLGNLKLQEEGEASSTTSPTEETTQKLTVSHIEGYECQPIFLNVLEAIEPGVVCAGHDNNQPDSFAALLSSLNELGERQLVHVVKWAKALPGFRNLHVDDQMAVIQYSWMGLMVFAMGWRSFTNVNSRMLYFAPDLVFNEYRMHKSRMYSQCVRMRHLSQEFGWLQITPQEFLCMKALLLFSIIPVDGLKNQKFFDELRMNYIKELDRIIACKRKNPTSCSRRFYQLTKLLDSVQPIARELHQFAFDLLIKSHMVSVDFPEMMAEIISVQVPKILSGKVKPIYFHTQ
Procedure, shortened: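 LNCaP prostate cancer cells (AR T878A) in phenol red-free RPMI1640 with 5% FBS treated with compound at final 10000 nmol/L for 48 h. Cell lysates analysed by Western blot with anti-AR antibody; band quantified by chemiluminescence.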

[5] = tested on: LNCaP-Xeno-IL-6 cells; experiment: Anti-tumor activity in in vivo model of castration resistant prostate cancer; details: castrated male nude mice, oral, every day for 2 weeks
Protocol: From the AR positive human prostate cancer cells LNCaP, castration resistant prostate cancer cells, LNCaP-Xeno-IL-6 cells, were established based on the scientific paper (Clin Cancer Res, 2001 7:2941-8) (in the paper, the cells have been reported as LNCaP-IL-6+ cells) and used for the in vivo test. The LNCaP-Xeno-IL-6 cells were implanted subcutaneously in male nude mice, and the castration treatment was performed when the tumor volume reached about 200 mm^3. After the castration, the vehicle only (0.5% HPMC) or the compound of Examples suspended in the vehicle was orally administered to the mice every day for 2 weeks. The compound of Examples was administered such that there was no difference in an exposure amount between the compounds. After the administration for 2 weeks, the tumor volume of each mouse was recorded and the average tumor volume of the group administered with the evaluation compound relative to the average tumor volume of the group administered only with the vehicle, that is, T/C (%), was calculated based on the following formula. T/C (%)=(Average tumor volume of evaluation compound group)/(Average tumor volume of vehicle administration group)

human androgen receptor, sequence (P10275 whole entry): as the sequence (P10275 whole entry T878A) above, with A878T counted along it

| Compound | IC50 [1] | GI50 [2] | Cell proliferation rate (%) [3] | 10 μM AR expression reducing activity [4] | T/C (%) ([5]; daily dose 30 mg/kg/day) | T/C (%) ([5]; daily dose 100 mg/kg/day) | T/C (%) ([5]; daily dose 15 mg/kg/day) | T/C (%) ([5]; daily dose 200 mg/kg/day) |
| --- | --- | --- | --- | --- | --- | --- | --- | --- |
| CC(C)(O)c1ccc(Nc2ncnc3c2CCN(c2ccc(C#N)c(C(F)(F)F)c2)C3)nc1 [Example 7, 4-(4-((5-(2-hydroxypropan-2-yl)pyridin-2-yl)amino)-5,6-dihydropyrido[3,4-d]pyrimidin-7(8H)-yl)-2-(trifluoromethyl)benzonitrile] | 160 nM | 500 nM | 4.9% | reduced (When the AR expression reducing activity is 50% or more, it is described as “reduced”) | 49% |  |  |  |
| CC(C)(O)c1ccc(Nc2ncnc3c2CCN(c2ccc(C#N)c(Cl)c2)C3)nn1 [Example 6, 2-chloro-4-(4-((6-(2-hydroxypropan-2-yl)pyridazin-3-yl)amino)-5,6-dihydropyrido[3,4-d]pyrimidin-7 (8H)-yl)benzonitrile] | 70 nM | 400 nM | −0.7% | reduced (When the AR expression reducing activity is 50% or more, it is described as “reduced”) |  | 29% |  |  |
| CC(C)(O)c1ccc(Nc2ncnc3c2CCN(c2ccc(C#N)c(Cl)c2)C3)nc1 [Example 9, 2-chloro-4-(4-((5-(2-hydroxypropan-2-yl)pyridin-2-yl)amino)-5,6-dihydropyrido[3,4-d]pyrimidin-7 (8H)-yl)benzonitrile] | 250 nM | 500 nM | −0.7% | reduced (When the AR expression reducing activity is 50% or more, it is described as “reduced”) |  |  | 40% |  |
| C[C@@H](NC(=O)c1ccc(Nc2ncnc3c2CCN(c2ccc(C#N)c(C(F)(F)F)c2)C3)nc1)c1nnc(C(F)(F)F)o1 [Example 40, (R)-6-((7-(4-cyano-3-(trifluoromethyl)phenyl)-5,6,7,8-tetrahydropyrido[3,4-d]pyrimidin-4-yl)amino)-N-(1-(5-(trifluoromethyl)-1,3,4-oxadiazol-2-yl)ethyl)nicotinamide] | 260 nM | 400 nM | 0.0% | reduced (When the AR expression reducing activity is 50% or more, it is described as “reduced”) |  |  |  |  |
| N#Cc1ccc(N2CCc3c(ncnc3Nc3ccc(C(=O)NCC(F)(F)F)cn3)C2)cc1C(F)(F)F [Example 11, 6-((7-(4-cyano-3-(trifluoromethyl)phenyl)-5,6,7,8,-tetrahydropyrido[3,4-d]pyrimidin-4-yl)amino)-N-(2,2,2-trifluoroethyl)nicotinamide] | 30 nM | 380 nM | 2.9% | reduced (When the AR expression reducing activity is 50% or more, it is described as “reduced”) |  |  |  | 47% |

— US10300067B2, “Tetrahydropyridopyrimidine compound or salt thereof” (TAIHO PHARMACEUTICAL CO., LTD., priority 2014, dated 2019)
